Converted amounts (≈) assume the structure as drawn. Where two headings read alike, the source gives them in different places. Square brackets hold non-standard residues; d marks the D form. Peptide text beside a SMILES is read from it.
Legend:
[1] = system: P. aeruginosa E411-17; test: microbe, parasite or virus in culture; assay type: cell-based, Pseudomonas aeruginosa; conditions: E411-17; read-out: MIC P. aeruginosa E411-17
From the text: (§1) The bacterial strains used include the Gram-positive strains Staphylococcus aureus USA300 LAC, S. epidermidis 1457, and Bacillus subtilis 168, as well as the Gram-negative isolates Escherichia coli K12 and Acinetobacter baumannii B2367-12. Additional, drug resistance strains include Gram-positive Enterococcus faecium V286-17 (VRE) and S. aureus M838-17 (MRSA) and Gram-negative E. coli E423-17, E. coli E416-17 (ampC), and P. aeruginosa E411-17. Bacteria were cultivated in tryptic soy broth (TSB) (BD Bioscience, MD).
(§2) The antibacterial activity of peptides was evaluated using a standard broth microdilution protocol with minor modifications as described (Mishra, et al. (2012) J. Am. Chem. Soc., 134:12426-12429). In brief, logarithmic phase bacterial cultures (i.e., optical density at 600 nm≈0.5) were diluted to OD600 0.001 and partitioned into a 96-well polystyrene microplate at 90 μL per well. After treatment with 10 μL of peptide solutions two fold diluted to various concentrations, microplates were incubated at 37° C. overnight and read on a ChroMate® 4300 Microplate Reader at 630 nm (GMI, Ramsey, MN). […] To study the influence of medium conditions on the antimicrobial activity of peptides against S. aureus USA300, up to 200 mM sodium chloride (NaCl), 2 mM of calcium chloride, 5-10% of human serum, mouse plasma, fluid, or supernatants of tissue homogenates were included into the assays.
(§3) The bacterial strains used include the Gram-positive bacteria methicillin-resistant Staphylococcus aureus USA300, Enterococcus faecium V286-17 (VRE), S. aureus M838-17 (MRSA) and Gram-negative bacteria E. coli E423-17, E416-7 (ampC), P. aeruginosa E411-17, PA01, K. pneumoniae E406-17, ATCC13883, and A. baumannii B26-16. Bacteria were cultivated in tryptic soy broth (TSB) from BD Bioscience.
(§4) The antibacterial activity of peptides was evaluated using a standard broth microdilution protocol with minor modifications (Mishra, et al. (2017) Acta Biomater., 49:316-328). In brief, logarithmic phase bacterial cultures (i.e., optical density at 600 nm≈0.5) were diluted to 0.001 OD and aliquoted 90 μL per well into a 96-well polystyrene microplate. Added 10 μL peptides per well with various concentrations, plates were incubated at 37° C., overnight. Post incubation the plates are read at 630 nm using a ChroMate® Microplate Reader (GMI). […] To study the influence of medium conditions on the antimicrobial activity of peptides against S. aureus USA300 at different pHs (6.8, 7.2, and 8.0), 150 mM sodium chloride (NaCl), 5-10% of human serum, mouse plasma, and peritoneal fluid were included into the assays.

[2] = system: A. baumannii B26-16; test: microbe, parasite or virus in culture; assay type: cell-based, Acinetobacter baumannii; conditions: B26-16; read-out: MIC A. baumannii B26-16
Method: as §3, §4

[3] = in vivo; conditions: BALB/c, mouse, plasma, iv, 10 mg/kg
Method: The efficacy of the two peptides was also investigated in non-neutropenic mice against S. aureus USA300. A higher bacterial inoculum at 2×10^8 CFU per mouse was used. […] To evaluate the peptide pharmacokinetics (Chhonker, et al. (2018) Biomed. Chromatogr. e4389), the plasma clearance rate of horine after intravenous injection of 10 mg/kg into BALB/c mice was followed.

[4] = system: E. faecium V286-17 (VRE); test: microbe, parasite or virus in culture; assay type: cell-based, Enterococcus faecium; conditions: V286-17 (VRE)
From the text: as §1, §2, §3, §4

[5] = system: S. aureus USA300; test: microbe, parasite or virus in culture; assay type: cell-based, Staphylococcus aureus
Method in brief: (§5)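 Broth microdilution: log-phase cultures in tryptic soy broth diluted to OD600 0.001, exposed to two-fold diluted peptides at 37° C overnight, growth read at 630 nm. Medium effects on S. aureus USA300 tested with up to 200 mM NaCl, 2 mM CaCl2, 5-10% human serum, mouse plasma, fluids or tissue homogenate supernatants.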

[6] = system: K. pneumoniae E406-17; test: microbe, parasite or virus in culture; assay type: cell-based, Klebsiella pneumoniae; conditions: E406-17; read-out: MIC K. pneumoniae E406-17
Method: as §2, §3, §4

[7] = system: E. coli E423-17; test: microbe, parasite or virus in culture; assay type: cell-based, Escherichia coli; conditions: E423-17; read-out: MIC E. coli E423-17
From the text: as §1, §2, §3, §4

[8] = system: E. coli ampC E416-7; assay type: cell-based, Escherichia coli; conditions: Table 7
From the text: as §1, §2

[9] = system: E. coli ATCC 25922; assay type: cell-based, Escherichia coli; conditions: ATCC 25922
Method in brief: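 Broth microdilution: log-phase E. coli diluted to OD600 0.001 and exposed to two-fold serial peptide dilutions overnight at 37 °C. Growth read at 630 nm.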

[10] = system: S. aureus M838-17 (MRSA); test: microbe, parasite or virus in culture; assay type: cell-based, Staphylococcus aureus; conditions: M838-17; read-out: MIC S. aureus M838-17 (MRSA)
Method in brief: as §5

[11] = system: human red blood cells (hRBCs); test: Hemolytic assay; assay type: cell-based
Method in brief: (§6)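 Washed hRBCs (2% v/v) exposed to peptide for 1 h at 37 °C, then centrifuged and hemoglobin in supernatant read at 545 nm. Lysis normalized to Triton X-100 (2% or 1%; 100%) and PBS (0%); HL50 is the peptide concentration giving 50% lysis, and CSI is HL50/MIC.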

[12] = Hemolytic assay; assay type: cell-based, human; conditions: human, human red blood cells, 2% (v/v)
Method in brief: as §6

[13] = system: P. aeruginosa PAO1; assay type: cell-based, Pseudomonas aeruginosa; conditions: PAO1
Method in brief: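 Broth microdilution in tryptic soy broth: log-phase cultures (OD600 ≈0.5) diluted to OD600 0.001, given two-fold peptide dilutions, incubated overnight at 37° C. Growth read at 630 nm.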

CC(C)C[C@@H](NC(=O)[C@@H](Cc1c[nH]c2ccccc12)NC(=O)[C@@H](Cc1c[nH]c2ccccc12)NC(=O)[C@H](N)Cc1c[nH]c2ccccc12)C(=O)N[C@H](CCCNC(=N)N)C(=O)N[C@H](CCCNC(=N)N)C(=O)N[C@H](CCCNC(=N)N)C(=O)N[C@H](Cc1c[nH]c2ccccc12)C(N)=O [D-horine] (H-[dW][dW][dW][dL][dR][dR][dR][dW]-NH2; N-terminus and C-terminus assumed)
MIC [1]: 32 µM (≈ 43 µg/mL) | MIC [2]: >32 µM | level at 5 min [3]: 192 µg/mL | level at 24 h [3]: 0.17 µg/mL | MIC ([4]; read-out: MIC E. faecium V286-17 (VRE)): 4 µM (≈ 5.37 µg/mL) | MIC ([5]; USA300, read-out: MIC S. aureus USA300 (MRSA)): 4 µM (≈ 5.37 µg/mL) | MIC [6]: >32 µM | MIC [7]: 16 µM (≈ 21.5 µg/mL)

CC(C)C[C@H](NC(=O)[C@H](CC(C)C)NC(=O)[C@H](CCCCN)NC(=O)[C@H](CC(C)C)NC(=O)CNC(=O)[C@H](CC(C)C)NC(=O)[C@H](CO)NC(=O)[C@H](CC(C)C)NC(=O)[C@H](CC(C)C)NC(=O)[C@H](CC(C)C)NC(=O)[C@H](CO)NC(=O)[C@H](CC(C)C)NC(=O)CN)C(N)=O [DFT503, GLSLLLSLGLKLL] (H-GLSLLLSLGLKLL-NH2; N-terminus and C-terminus assumed)
MIC E. coli ampC E416-7 [8]: >50 µM | MIC [1]: >50 µM | MIC EC (E. coli ATCC 25922) [9]: >25 µM | MIC E. faecium V286-17 (VRE) [4]: 3.1 to 6.25 µM | MIC [10]: 3.1 µM (≈ 4.15 µg/mL) | MIC ([5]; 1 mM Ca2+): 1.56 µM (≈ 2.09 µg/mL) | MIC ([5]; 2 mM Ca2+): 1.56 µM (≈ 2.09 µg/mL) | MIC ([5]; 50 mM NaCl): 1.56 to 3.1 µM | MIC ([5]; 100 mM NaCl): 1.56 to 3.1 µM | MIC ([5]; No salts added, Table 6, by UV): 1.56 µM | MIC ([5]; USA300): 3.1 µM (≈ 4.15 µg/mL) | MIC SA (S. aureus USA300) ([5]; USA300): 1.6 µM (≈ 2.14 µg/mL) | MIC ([5]; USA300, pH 6.8): 3.1 µM (≈ 4.15 µg/mL) | MIC ([5]; USA300, pH 7.4): 3.1 to 6.2 µM | MIC ([5]; USA300, pH 8): 3.1 µM (≈ 4.15 µg/mL) | MIC [6]: >50 µM | HL50, peptide concentration for 50% hemolysis [11]: >300 µM | HC50 at 1 h [12]: > 300 µM | MIC PA (P. aeruginosa PAO1) [13]: >25 µM | MIC [7]: >50 µM

CC(C)C[C@@H](NC(=O)[C@@H](CC(C)C)NC(=O)[C@@H](CCCCN)NC(=O)[C@@H](CC(C)C)NC(=O)CNC(=O)[C@@H](CC(C)C)NC(=O)[C@@H](CO)NC(=O)[C@@H](CC(C)C)NC(=O)[C@@H](CC(C)C)NC(=O)[C@@H](CC(C)C)NC(=O)[C@@H](CO)NC(=O)[C@@H](CC(C)C)NC(=O)CN)C(N)=O [DFT503d, GLSLLLSLGLKLL] (H-G[dL][dS][dL][dL][dL][dS][dL]G[dL][dK][dL][dL]-NH2; N-terminus and C-terminus assumed)
MIC E. coli ampC E416-7 [8]: >50 µM | MIC [1]: >50 µM | MIC EC (E. coli ATCC 25922) [9]: >25 µM | MIC E. faecium V286-17 (VRE) [4]: 3.1 to 6.25 µM | MIC [10]: 3.1 µM (≈ 4.15 µg/mL) | MIC ([5]; 1 mM Ca2+): 1.56 µM (≈ 2.09 µg/mL) | MIC ([5]; 2 mM Ca2+): 1.56 µM (≈ 2.09 µg/mL) | MIC ([5]; 50 mM NaCl): 1.56 µM (≈ 2.09 µg/mL) | MIC ([5]; 100 mM NaCl): 1.56 µM (≈ 2.09 µg/mL) | MIC ([5]; 200 mM NaCl): 1.56 µM (≈ 2.09 µg/mL) | MIC ([5]; No salts added, Table 6, by UV): 1.56 µM | MIC ([5]; USA300): 3.1 µM (≈ 4.15 µg/mL) | MIC SA (S. aureus USA300) ([5]; USA300): 1.6 µM (≈ 2.14 µg/mL) | MIC ([5]; USA300, pH 6.8): 3.1 µM (≈ 4.15 µg/mL) | MIC ([5]; USA300, pH 7.4): 3.1 µM (≈ 4.15 µg/mL) | MIC ([5]; USA300, pH 8): 1.6 µM (≈ 2.14 µg/mL) | MIC [6]: >50 µM | HC50 at 1 h [12]: > 300 µM | MIC PA (P. aeruginosa PAO1) [13]: >25 µM | MIC [7]: >50 µM
